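These data come from cells grown in 96-well plates and exposed to compound for 48 hours at five concentrations. TGI is the concentration that stops growth completely.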
How the values were obtained:
Experiment in all cases: NCI tumour cell line growth inhibition, 48 h
BT-549 breast = tested on: BT-549 breast
SW-620 colon = tested on: SW-620 colon
SK-MEL-5 melanoma = tested on: SK-MEL-5 melanoma
PC-3 prostate = tested on: PC-3 prostate
MALME-3M melanoma = tested on: MALME-3M melanoma
NCI-H23 lung = tested on: NCI-H23 lung
HS 578T breast = tested on: HS 578T breast
SR leukemia = tested on: SR leukemia
OVCAR-8 ovarian = tested on: OVCAR-8 ovarian
M14 melanoma = tested on: M14 melanoma
NCI/ADR-RES ovarian = tested on: NCI/ADR-RES ovarian
MDA-MB-231 breast = tested on: MDA-MB-231 breast
HOP-92 NSCLC = tested on: HOP-92 NSCLC
U251 CNS = tested on: U251 CNS
786-0 renal = tested on: 786-0 renal
SF-295 CNS = tested on: SF-295 CNS
SF-268 CNS = tested on: SF-268 CNS
RPMI-8226 leukemia = tested on: RPMI-8226 leukemia
HOP-62 NSCLC = tested on: HOP-62 NSCLC
HCT-116 colon = tested on: HCT-116 colon
A498 renal = tested on: A498 renal
DU-145 prostate = tested on: DU-145 prostate
NCI-H460 lung = tested on: NCI-H460 lung
A549 NSCLC = tested on: A549 NSCLC
MDA-MB-435 = tested on: MDA-MB-435
COLO 205 colon = tested on: COLO 205 colon
TK-10 renal = tested on: TK-10 renal
KM12 colon = tested on: KM12 colon
MOLT-4 leukemia = tested on: MOLT-4 leukemia
K-562 leukemia = tested on: K-562 leukemia
EKVX NSCLC = tested on: EKVX NSCLC
SK-MEL-2 melanoma = tested on: SK-MEL-2 melanoma
SNB-75 CNS = tested on: SNB-75 CNS
RXF 393 renal = tested on: RXF 393 renal
OVCAR-3 ovarian = tested on: OVCAR-3 ovarian
CAKI-1 renal = tested on: CAKI-1 renal
UACC-257 melanoma = tested on: UACC-257 melanoma
SNB-19 CNS = tested on: SNB-19 CNS
LOX IMVI melanoma = tested on: LOX IMVI melanoma
SN12C renal = tested on: SN12C renal
NCI-H522 lung = tested on: NCI-H522 lung
ACHN renal = tested on: ACHN renal
UACC-62 melanoma = tested on: UACC-62 melanoma
T-47D breast = tested on: T-47D breast
OVCAR-4 ovarian = tested on: OVCAR-4 ovarian
HT29 colon = tested on: HT29 colon
OVCAR-5 ovarian = tested on: OVCAR-5 ovarian
SK-OV-3 ovarian = tested on: SK-OV-3 ovarian
MDA-N = tested on: MDA-N
IGROV1 ovarian = tested on: IGROV1 ovarian
SK-MEL-28 melanoma = tested on: SK-MEL-28 melanoma
NCI-H226 lung = tested on: NCI-H226 lung
SF-539 CNS = tested on: SF-539 CNS
HCT-15 colon = tested on: HCT-15 colon
MCF7 breast = tested on: MCF7 breast
HL-60(TB) leukemia = tested on: HL-60(TB) leukemia
CCRF-CEM leukemia = tested on: CCRF-CEM leukemia
HCC-2998 colon = tested on: HCC-2998 colon
UO-31 renal = tested on: UO-31 renal

`CN(C)CC(C)(C)CN1c2ccccc2Sc2ccccc21` was tested, and the TGI (BT-549 breast) was 27.6 µM, the TGI (SW-620 colon) was 28.3 µM and the TGI (SK-MEL-5 melanoma) was 29.4 µM. The TGI (PC-3 prostate) was 25.5 µM, the TGI (MALME-3M melanoma) was 27.9 µM and the TGI (NCI-H23 lung) was 30.2 µM. The TGI (HS 578T breast) was 28.5 µM, the TGI (SR leukemia) was 23.4 µM and the TGI (OVCAR-8 ovarian) was 28.6 µM. It also gave a TGI (M14 melanoma) of 22.4 µM, a TGI (NCI/ADR-RES ovarian) of 26.3 µM and a TGI (MDA-MB-231 breast) of 24.3 µM. The TGI (HOP-92 NSCLC) was 24.1 µM, the TGI (U251 CNS) was 26.4 µM and the TGI (786-0 renal) was 25.5 µM. It also gave a TGI (SF-295 CNS) of 26.8 µM, a TGI (SF-268 CNS) of 27.5 µM and a TGI (RPMI-8226 leukemia) of 35.8 µM. For the same compound, the TGI (HOP-62 NSCLC) was 25.5 µM, the TGI (HCT-116 colon) was 26.7 µM and the TGI (A498 renal) was 26.4 µM. It also gave a TGI (DU-145 prostate) of 24.8 µM, a TGI (NCI-H460 lung) of 26.3 µM and a TGI (A549 NSCLC) of 29.3 µM. The TGI (MDA-MB-435) was 26.5 µM, the TGI (COLO 205 colon) was 24.9 µM and the TGI (TK-10 renal) was 26.9 µM. For the same compound, the TGI (KM12 colon) was 25.8 µM, the TGI (MOLT-4 leukemia) was 20.8 µM and the TGI (K-562 leukemia) was 22.8 µM. It also gave a TGI (EKVX NSCLC) of 28.8 µM, a TGI (SK-MEL-2 melanoma) of 28.8 µM and a TGI (SNB-75 CNS) of 18 µM. The TGI (RXF 393 renal) was 13 µM, the TGI (OVCAR-3 ovarian) was 24.3 µM and the TGI (CAKI-1 renal) was 24.7 µM. For the same compound, the TGI (UACC-257 melanoma) was 24.7 µM, the TGI (SNB-19 CNS) was 29.5 µM and the TGI (LOX IMVI melanoma) was 26.4 µM. The TGI (SN12C renal) was 25.9 µM, the TGI (NCI-H522 lung) was 25.9 µM and the TGI (ACHN renal) was 28.3 µM. It also gave a TGI (UACC-62 melanoma) of 28.2 µM, a TGI (T-47D breast) of 29.3 µM and a TGI (OVCAR-4 ovarian) of 26.5 µM. It also gave a TGI (HT29 colon) of 22.6 µM, a TGI (OVCAR-5 ovarian) of 29.9 µM and a TGI (SK-OV-3 ovarian) of 26 µM. It also gave a TGI (MDA-N) of 28.2 µM, a TGI (IGROV1 ovarian) of 28.1 µM and a TGI (SK-MEL-28 melanoma) of 26.8 µM. For the same compound, the TGI (NCI-H226 lung) was 33.4 µM, the TGI (SF-539 CNS) was 34.3 µM and the TGI (HCT-15 colon) was greater than 100 µM. It also gave a TGI (MCF7 breast) of 30 µM.
Work on `S=C(S)NCCN1CCNCC1` yielded a TGI (BT-549 breast) greater than 100 µM, a TGI (SW-620 colon) greater than 100 µM and a TGI (SK-MEL-5 melanoma) greater than 100 µM. It also gave a TGI (PC-3 prostate) greater than 100 µM, a TGI (MALME-3M melanoma) of 82.5 µM and a TGI (NCI-H23 lung) greater than 100 µM. For the same compound, the TGI (HS 578T breast) was greater than 100 µM, the TGI (SR leukemia) was greater than 100 µM and the TGI (OVCAR-8 ovarian) was 95.3 µM. The TGI (M14 melanoma) was greater than 100 µM, the TGI (HL-60(TB) leukemia) was 8.01 µM and the TGI (NCI/ADR-RES ovarian) was greater than 100 µM. For the same compound, the TGI (MDA-MB-231 breast) was greater than 100 µM, the TGI (HOP-92 NSCLC) was greater than 100 µM and the TGI (U251 CNS) was greater than 100 µM. For the same compound, the TGI (786-0 renal) was 77 µM, the TGI (SF-295 CNS) was greater than 100 µM and the TGI (SF-268 CNS) was greater than 100 µM. The TGI (RPMI-8226 leukemia) was 47.5 µM, the TGI (HOP-62 NSCLC) was greater than 100 µM and the TGI (CCRF-CEM leukemia) was greater than 100 µM. It also gave a TGI (HCT-116 colon) greater than 100 µM, a TGI (A498 renal) greater than 100 µM and a TGI (DU-145 prostate) greater than 100 µM. The TGI (NCI-H460 lung) was greater than 100 µM, the TGI (A549 NSCLC) was greater than 100 µM and the TGI (MDA-MB-435) was greater than 100 µM. For the same compound, the TGI (COLO 205 colon) was 43.7 µM, the TGI (TK-10 renal) was 58.4 µM and the TGI (KM12 colon) was greater than 100 µM. The TGI (HCC-2998 colon) was 68.7 µM, the TGI (UO-31 renal) was greater than 100 µM and the TGI (K-562 leukemia) was greater than 100 µM. It also gave a TGI (EKVX NSCLC) greater than 100 µM, a TGI (SK-MEL-2 melanoma) greater than 100 µM and a TGI (SNB-75 CNS) greater than 100 µM. For the same compound, the TGI (RXF 393 renal) was 64.3 µM, the TGI (OVCAR-3 ovarian) was 63.8 µM and the TGI (CAKI-1 renal) was greater than 100 µM. For the same compound, the TGI (UACC-257 melanoma) was 59 µM, the TGI (SNB-19 CNS) was greater than 100 µM and the TGI (LOX IMVI melanoma) was greater than 100 µM. It also gave a TGI (SN12C renal) greater than 100 µM, a TGI (NCI-H522 lung) of 32.7 µM and a TGI (ACHN renal) greater than 100 µM. The TGI (UACC-62 melanoma) was greater than 100 µM, the TGI (T-47D breast) was 60.7 µM and the TGI (OVCAR-4 ovarian) was greater than 100 µM. It also gave a TGI (HT29 colon) greater than 100 µM, a TGI (OVCAR-5 ovarian) greater than 100 µM and a TGI (SK-OV-3 ovarian) greater than 100 µM. For the same compound, the TGI (MDA-N) was greater than 100 µM, the TGI (IGROV1 ovarian) was greater than 100 µM and the TGI (SK-MEL-28 melanoma) was greater than 100 µM. For the same compound, the TGI (NCI-H226 lung) was greater than 100 µM, the TGI (HCT-15 colon) was greater than 100 µM and the TGI (MCF7 breast) was greater than 100 µM.

From PubChem BioAssay (NCI)
